The record followed here is patent publication US20090076044A1, “VEGFR INHIBITORS CONTAINING A ZINC BINDING MOIETY” (priority 2007, published 2009).

Where two headings read alike, the source gives them in different places.

Common to all, as to format: biochemical
One experiment addresses T1, human VEGFR2 (Homo sapiens, UniProt P35968).
T1 construct: kinase domain (amino acids 790 to end) fragment; 6xHis (N); made in house; host or cells: Sf21 insect cells (baculovirus)
In words: VEGFR2/KDR radioisotope kinase assay. Here is the method:
(a) An In Vitro Assay which-Determines the Ability of a Test Compound to Inhibit a Receptor Tyrosine Kinase.
The ability of compounds to inhibit receptor kinase (VEGFR2 and PDGFR-beta) activity was assayed using standard radioisotope assay for kinase. […] The proteins were purified using Ni2+/NTA agarose affinity column to purity
>85% as determined by coomassie blue-stained SDS-PAGE gel. For VEGFR2/KDR assay, p33 ATP tracers were incubated with purified recombinant VEGFR2 kinase to monitor the enzyme activity. In this assay, reactions were carried out in the presence of 0.1 mg/ml VEGFR2 kinase and 0.33 mg/ml myelin basic protein. The reaction was carried out at 30° C. for 120 minutes in a final assay condition contained 50 mM Tris-HCl, pH 7.5, 300 mM NaCl, 0.1 mM EGTA, 0.03% Brij 35, 270 mM sucrose, 1 mM benzamidine, 0.2 mM PMSF, 0.1% 2-mercaptoethanol and 100 μM ATP. An equal volume of 25% TCA was added to stop the reaction and precipitate the labeled proteins. Precipitated proteins were trapped onto glass fiber B filterplates and excess unlabeled p33 ATP was washed off. The plates were allowed to air-dry prior to the addition of 30 uL/well of Packard Microscint 20. The amount of incorporated isotope was measured using a Perkin Elmer TopCount plate reader. Different concentrations of compounds were added to reaction to assess the activity of compounds to inhibit VEGFR2 kinase. IC50 was calculated using Prism software with sigmoidal dose-response curve fitting.

For the next experiment, the target named is T2, human HER2 (Homo sapiens, UniProt P04626).
T2 construct: human HER2 amino acids 679-1255; host or cells: Sf9 insect cells (baculovirus)
In words: HER2 enzymatic activity assay. Here is the method:
(d) An In Vitro Assay which Determines the Ability of a Test Compound to Inhibit HER2 Enzymatic Activity.
10 nM HER2 and 0.1 mg/ml polyEY were placed in the reaction buffer and 2 mM MnCl2, 1 μM ATP and 1% DMSO final were added. The reaction mixture was incubated for 2 hours at room temperature.
Purity>90% by SDS PAGE and Coomassie blue staining. MW=91.6 kDa. Specific Activity of 40 U/mg, where one unit of activity is defined as 1 nmol phosphate incorporated into 30 ug/ml Poly (Glu:Tyr)4:1 substrate per minute at 30° C. with a final ATP concentration of 100 μM. Enzyme is in 25 mM Tris-HCl, pH 8.0, 100 mM NaCl, 0.05% Tween-20, 50% glycerol, 10 mM reduced glutathione, and 3 mM DTT.

For another experiment, the system named is HDAC. In words: HDAC fluorimetric assay kit (HeLa nuclear extract). As to the method: (b) An In Vitro Assay which Determines the Ability of a Test Compound to Inhibit HDAC Enzymatic Activity.
HDAC inhibitors were screened using an HDAC fluorimetric assay kit (AK-500, Biomol, Plymouth Meeting, Pa.). Test compounds were dissolved in dimethylsulphoxide (DMSO) to give a 20 mM working stock concentration. Fluorescence was measured on a WALLAC Victor 2 plate reader and reported as relative fluorescence units (RFU). Data were plotted using GraphPad Prism (v4.0a) and IC50's calculated using a sigmoidal dose response curve fitting algorithm. Each assay was setup as follows: Defrosted all kit components and kept on ice until use. Diluted HeLa nuclear extract 1:29 in Assay Buffer (50 mM Tris/Cl, pH 8.0, 137 mM NaCl, 2.7 mM KCl, 1 mM MgCl2). Prepared dilutions of Trichostatin A (TSA, positive control) and tested compounds in assay buffer (5× of final concentration). Diluted Fluor de Lys™ Substrate in assay buffer to 100 uM (50 fold=2× final). Diluted Fluor de Lys™ developer concentrate 20-fold (e.g. 50 μl plus 950 μl Assay Buffer) in cold assay buffer. Second, diluted the 0.2 mM Trichostatin A 100-fold in the 1× Developer (e.g. 10 μl in 1 ml; final Trichostatin A concentration in the 1× Developer=2 μM; final concentration after addition to HDAC/Substrate reaction=1 μM). Added Assay buffer, diluted trichostatin A or test inhibitor to appropriate wells of the microtiter plate. Added diluted HeLa extract or other HDAC sample to all wells except for negative controls. Allowed diluted Fluor de Lys™ Substrate and the samples in the microtiter plate to equilibrate to assay temperature (e.g. 25 or 37° C. Initiated HDAC reactions by adding diluted substrate (25 μl) to each well and mixing thoroughly. Allowed HDAC reactions to proceed for 1 hour and then stopped them by addition of Fluor de Lys™ Developer (50 μl). Incubated plate at room temperature (25° C.) for 10-15 min. Read samples in a microtiter-plate reading fluorimeter capable of excitation at a wavelength in the range 350-380 nm and detection of emitted light in the range 440-460 nm.

A further experiment has as its target T3, human c-Met (Homo sapiens, UniProt P08581).
T3 construct: recombinant human catalytic domain (amino acids 956-1390); His; host or cells: insect cells
In words: c-Met radioisotope kinase assay. To be noted: 1 μM ATP. As to the method: (c) An In Vitro Assay which Determines the Ability of a Test Compound to Inhibit c-MET Enzymatic Activity.
For c-Met assay, p33 ATP tracers were incubated with purified recombinant c-Met kinase to monitor the enzyme activity. C-Met (Accession number: GenBank NP_000236.2) is characterized as follows: recombinant human catalytic domain (amino acids 956-1390) with histidine-tagged, expressed in insect cells. Purity≧90% by SDS-PAGE and Coomassie blue staining. MW=53.7 kDa. Specific Activity of 373 nmole of phosphate transferred to myelin basic protein (MBP) per minute per mg of total protein at 30° C. Activity determined at a final protein concentration of 2 μg/mL. Enzyme at 0.41 mg/ml in 20 mM Tris (pH 7.5), 100 mM NaCl, 0.5 mM EDTA, 0.05% Triton X-100, 2 mM DTT, 50% Glycerol. In this assay, reactions were carried out in the presence of 10 nM c-Met kinase and 5 uM myelin basic protein. The reaction was carried out at 30° C. for 120 minutes in a final assay condition contained 20 mM HEPES, pH 7.5, 10 mM MgCl2, 1 mM EGTA, 0.02% Brij 35, 0.02 mg/ml BSA, 0.1 mM Na3VO4, 2 mM DTT and 1 μM ATP. An equal volume of 25% TCA was added to stop the reaction and precipitate the labeled proteins. Precipitated proteins were trapped onto glass fiber B filterplates and excess unlabeled p33 ATP was washed off. The plates were allowed to air-dry prior to the addition of 30 uL/well of Packard Microscint 20. The amount of incorporated isotope was measured using a Perkin Elmer TopCount plate reader. Different concentrations of compounds were added to reaction to assess the activity of compounds to inhibit c-Met kinase. IC50 was calculated using Prism software with sigmoidal dose-response curve fitting.

Setting [1] is: 100 μM ATP, read-out: VEGFR2 IC50.
Setting [2] is: 1 μM ATP, read-out: HER2/ErbB IC50.

T3 sequence (P08581 956-1390): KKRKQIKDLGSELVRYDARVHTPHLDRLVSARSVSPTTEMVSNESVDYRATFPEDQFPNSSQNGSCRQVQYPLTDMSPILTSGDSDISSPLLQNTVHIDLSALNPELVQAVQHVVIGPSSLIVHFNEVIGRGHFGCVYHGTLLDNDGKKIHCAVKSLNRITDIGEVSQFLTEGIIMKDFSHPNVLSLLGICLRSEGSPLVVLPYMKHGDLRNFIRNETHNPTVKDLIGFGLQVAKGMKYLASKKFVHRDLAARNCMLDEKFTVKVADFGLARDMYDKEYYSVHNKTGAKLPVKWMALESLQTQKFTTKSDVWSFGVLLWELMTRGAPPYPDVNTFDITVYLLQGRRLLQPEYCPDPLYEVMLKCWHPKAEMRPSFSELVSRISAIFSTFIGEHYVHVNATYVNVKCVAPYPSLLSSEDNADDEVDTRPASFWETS
T2 sequence (P04626 679-1255): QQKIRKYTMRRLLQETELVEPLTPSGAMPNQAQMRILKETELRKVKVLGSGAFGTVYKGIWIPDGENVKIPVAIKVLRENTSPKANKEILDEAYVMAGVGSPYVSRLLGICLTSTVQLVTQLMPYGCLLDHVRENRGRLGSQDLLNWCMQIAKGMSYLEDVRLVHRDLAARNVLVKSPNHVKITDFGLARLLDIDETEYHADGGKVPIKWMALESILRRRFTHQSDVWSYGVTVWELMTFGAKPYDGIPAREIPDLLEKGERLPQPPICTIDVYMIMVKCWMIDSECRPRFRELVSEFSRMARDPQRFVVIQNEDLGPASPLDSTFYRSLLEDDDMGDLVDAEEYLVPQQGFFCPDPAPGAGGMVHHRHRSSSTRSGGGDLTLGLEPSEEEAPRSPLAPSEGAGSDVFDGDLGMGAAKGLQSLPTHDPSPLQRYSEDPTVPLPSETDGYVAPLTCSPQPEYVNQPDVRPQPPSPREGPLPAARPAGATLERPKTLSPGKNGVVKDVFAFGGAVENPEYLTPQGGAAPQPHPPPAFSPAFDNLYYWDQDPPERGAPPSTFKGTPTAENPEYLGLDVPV
T1 sequence (P35968 790-1356 limits assumed): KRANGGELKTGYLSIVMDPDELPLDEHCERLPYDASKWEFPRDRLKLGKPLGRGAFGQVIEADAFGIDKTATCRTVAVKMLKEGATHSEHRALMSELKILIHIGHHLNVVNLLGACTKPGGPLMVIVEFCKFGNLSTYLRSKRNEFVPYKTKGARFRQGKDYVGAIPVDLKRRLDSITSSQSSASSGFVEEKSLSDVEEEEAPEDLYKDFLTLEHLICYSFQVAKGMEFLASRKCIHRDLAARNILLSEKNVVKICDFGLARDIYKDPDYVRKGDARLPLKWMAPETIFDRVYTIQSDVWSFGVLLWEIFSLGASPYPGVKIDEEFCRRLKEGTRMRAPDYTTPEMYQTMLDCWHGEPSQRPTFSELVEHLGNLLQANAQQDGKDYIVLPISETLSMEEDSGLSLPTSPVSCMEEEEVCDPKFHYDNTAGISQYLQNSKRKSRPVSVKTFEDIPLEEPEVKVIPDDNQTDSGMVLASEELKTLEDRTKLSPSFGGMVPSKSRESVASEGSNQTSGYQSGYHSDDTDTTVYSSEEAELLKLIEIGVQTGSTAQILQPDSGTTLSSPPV

Turning to `COc1cc2ncnc(Nc3ccc4occc4c3)c2cc1OCCCCCCC(=O)NO` [Compound 2, 7-(4-(benzofuran-5-ylamino)-7-methoxyquinazolin-6-yloxy)-N-hydroxyheptanamide], the IC50 at human VEGFR2 (setting [1]) is 1000 to 10000 nM; on human HER2 (setting [2]) it was under 100 nM; with HDAC it was under 100 nM.

Take `COc1cc2c(Oc3ccc4[nH]c(C)cc4c3F)ncnc2cc1OCCCCCC(=O)NO` [Compound 10, 6-(4-(4-fluoro-2-methyl-1H-indol-5-yloxy)-6-methoxyquinazolin-7-yloxy)-N-hydroxyhexanamide]: the IC50 at human c-Met was 1000 to 10000 nM; on human VEGFR2 (setting [1]), under 100 nM; on human HER2 (setting [2]) it was 100 to 1000 nM; in the experiment with HDAC, 100 to 1000 nM.

As for `COc1cc2c(Oc3ccc4[nH]c(C)cc4c3F)ncnc2cc1OCCCCCCC(=O)NO` [Compound 11, 7-(4-(4-fluoro-2-methyl-1H-indol-5-yloxy)-6-methoxyquinazolin-7-yloxy)-N-hydroxyheptanamide], the IC50 is 1000 to 10000 nM against human c-Met, under 100 nM against human VEGFR2, 1000 to 10000 nM against human HER2 and 100 to 1000 nM in the experiment on HDAC.

For the compound `COc1cc2c(Nc3ccc4[nH]c(C)cc4c3F)ncnc2cc1OCCCCCC(=O)NO` [Compound 13, 6-(4-(4-fluoro-2-methyl-1H-indol-5-ylamino)-6-methoxyquinazolin-7-yloxy)-N-hydroxyhexanamide], the IC50 on human VEGFR2 (setting [1]), on human HER2 (setting [2]) and in the experiment with HDAC was under 100 nM throughout.

In the case of `COc1cc2c(Nc3ccc4[nH]c(C)cc4c3F)ncnc2cc1OCCCCCCC(=O)NO` [Compound 14, 7-(4-(4-fluoro-2-methyl-1H-indol-5-ylamino)-6-methoxy-quinazolin-7-yloxy)-N-hydroxyheptanamide], the IC50 was 1000 to 10000 nM at human c-Met, under 100 nM on human VEGFR2 (setting [1]), 100 to 1000 nM on human HER2 (setting [2]) and under 100 nM with HDAC.

Regarding `Cc1cc2c(F)c(Oc3ncnc4cc(OCCCN5CCCC5)c(OCCCCCC(=O)NO)cc34)ccc2[nH]1` [Compound 16, 6-(4-(4-fluoro-2-methyl-1H-indol-5-yloxy)-7-(3-(pyrrolidin-1-yl)propoxy)quinazolin-6-yloxy)-N-hydroxyhexanamide], the IC50 at human c-Met was 100 to 1000 nM; at human VEGFR2 (setting [1]), under 100 nM; at human HER2 (setting [2]), under 100 nM; in the experiment with HDAC, 100 to 1000 nM.

As for `Cc1cc2c(F)c(Oc3ncnc4cc(OCCCN5CCCC5)c(OCCCCCCC(=O)NO)cc34)ccc2[nH]1` [Compound 17], the IC50 was under 100 nM on human c-Met, under 100 nM on human VEGFR2 (setting [1]), 100 to 1000 nM on human HER2 (setting [2]) and under 100 nM in the experiment with HDAC.

Regarding `Cc1cc2c(F)c(Nc3ncnc4cc(OCCCN5CCCC5)c(OCCCCC(=O)NO)cc34)ccc2[nH]1` [Compound 18, 5-(4-(4-fluoro-2-methyl-1H-indol-5-ylamino)-7-(3-(pyrrolidin-1-yl)propoxy)quinazolin-6-yloxy)-N-hydroxypentanamide], the IC50 was under 100 nM on human VEGFR2 (setting [1]), under 100 nM at human HER2 (setting [2]) and 100 to 1000 nM in the experiment with HDAC.

For `Cc1cc2c(F)c(Nc3ncnc4cc(OCCCN5CCCC5)c(OCCCCCC(=O)NO)cc34)ccc2[nH]1` [Compound 19, 6-(4-(4-Fluoro-2-methyl-1H-indol-5-ylamino)-7-(3-(pyrrolidin-1-yl)propoxy)quinazolin-6-yloxy)-N-hydroxyhexanamide], the values for the IC50 at human VEGFR2 (setting [1]), at human HER2 (setting [2]) and in the experiment with HDAC were under 100 nM, under 100 nM and 100 to 1000 nM, respectively.

Regarding `Cc1cc2c(F)c(Nc3ncnc4cc(OCCCN5CCCC5)c(OCCCCCCC(=O)NO)cc34)ccc2[nH]1` [Compound 20, 7-(4-(4-Fluoro-2-methyl-1H-indol-5-ylamino)-7-(3-(pyrrolidin-1-yl)propoxy)quinazolin-6-yloxy)-N-hydroxyheptanamide], the figures for the IC50 against human c-Met, at human VEGFR2 (setting [1]) and at human HER2 (setting [2]) were 1000 to 10000 nM, under 100 nM and under 100 nM, respectively.
